Patent US10662204B2 (PFIZER INC., priority 2018, dated 2020)

Experiments:
[1] = biological target: KRAS G12C (Homo sapiens, UniProt P01116, G12C); test: Cell Activity Assay: accumulation of GDP-bound KRAS G12C in MIAPaCa-2 cells (Raf-1 RBD capture, MSD readout); assay type: cell-based; parameters: endogenous in cells; host or cells: MIAPaCa-2; conditions: 6 hours, assay limit is 30.00
Method: Compounds presented in the present invention lead to the accumulation of the GDP bound Ras upon treatment of human cancer cell line.
The accumulation of the GDP-bound KRAS G12C in cellular environment was measured based on the principle that KRAS G12C only binds to its downstream kinase; Raf-1 (MAP Kinase Kinase Kinase), when in its active-GTP bound state. In this state, Ras binded to a domain of Raf-1 kinase referred to as the Ras Binding Domain (RBD).
MIAPaCa-2 cells were grown in RPMI 1640 medium (Gibco 11875) supplemented with 10% fetal bovine serum and 1% penicillin/streptomycin. Cells were seeded in 96-well tissue culture plates at a density of 30,000 cells/well and allowed to attach for 16-24 hours. Test compounds were prepared as a 10 mM stock in DMSO and serially diluted in 100% DMSO using a 3-fold dilution scheme. An intermediate 5× concentrated plate in complete growth medium was made and 25 μl/well was added to the 100 μl of cells for a final concentration of 0.3% DMSO. Each concentration of exemplary compound was tested in duplicate. The negative control wells were cells with control inhibitor at 10 μM, and the positive control wells were cells without drugs, DMSO only. Plates were incubated for 6 hours at 37° C., 5% CO2. Following treatment, cells were washed 3× with ice-cold PBS and 115 μl/well ice-cold 1× Assay/Lysis. Buffer with protease inhibitors was added (25 mM HEPES, pH 7.5, 150 mM NaCl, 1% NP-40, 10 mM MgCl2, 1 mM EDTA, 2% Glycerol). Following lysis samples were frozen at −80° C.
Raf-1 RBD (LJIC-1988A1) was diluted to 100 ng/well in PBS and 5 μl/well was spot coated onto MSD high bind SECTOR plates (L15XB). Plates were incubated at room temperature for 1 hour on an orbital shaker. Plates were washed with PBS/0.05% Tween-20 and 50 μl/well of thawed lysate samples were added, followed by 50 μl of 1% MSD Blocker A in PBS/0.05 Tween-20 (R93BA). Plates were incubated for 1 hour on an orbital shaker and washed with PBS/0.05% Tween-20. 25 μl/well of Anti-pan-Ras Antibody (Cell Biolabs 244003) diluted 1:3000 was added in 1% MSD Blocker A solution and plates were incubated for 1 hour on an orbital shaker and washed with PBS/0.05% Tween-20. SULFO-TAG goat anti-mouse secondary antibody (MSD R32AC) was diluted 1:500 in MSD Blocker A solution and added at 25 μL/well. Plates were incubated for 1 hour on an orbital shaker and washed with PBS/0.05% Tween-20. 150 μl/well of Read Buffer T (MSD R92TC) diluted 1:3 in H2O was added and plates were read on a Meso Scale Discovery Sector Imager S600.
KRAS signal was normalized to maximum inhibition and DMSO control values, and IC50 values were generated using a 4 parameter fit of the dose response curve. The decrease in IC50 reflects that the exemplary compound lead to a higher level of accumulation of GDP-bound KRAS G12C than another exemplary compounds at specific timepoint of treatment of cancer cell line.

[2] = biological target: T1, GDP-loaded KRAS (1-169) G12C, C51S, C80L, C118S (Homo sapiens, UniProt P01116, C118S/C51S/C80L/G12C); test: Mass Spectrometry Reactivity Assay (MSRA): covalent adduct of compound and KRAS G12C, Percent Modification; assay type: binding; conditions: for MSRA (% modification) 10 μM 0.25 hr / MSRA (% modification) 10 μM 0.50 hr: 10 μM compound; for MSRA (% modification) 5.0 μM 0.017 hr: 5.0 μM compound
T1 construct: GDP-loaded KRAS (1-169) G12C, C51S, C80L, C118S
Method: Mass Spectrometry Reactivity Assay (MSRA)
Compounds presented in the present invention covalently bind to KRAS G12C using MSRA to detect a covalent adduct of the exemplary compound and KRAS G12C.
GDP-loaded KRAS (1-169) G12C, C51S, C80L, C118S were diluted in the protein assay buffer 25 mM Hepes pH7.5, 200 mM NaCl, 5% glycerol to concentration of 5 μM and 20 μl of protein was transferred into 96-well plate. Initial compound stocks were generated at concentrations 100-fold higher that their desired assay concentrations. See K-Ras(G12C) inhibitors allosterically control GTP affinity and effector interactions; Ostrem J M, Peters U, Sos M L, Wells J A, Shokat K M; Nature. 2013, Nov. 28; 503(7477):548-51.
Exemplary compounds dissolved in DMSO were diluted 100-fold into solution containing 20 μl of 5 μM KRAS protein in the 96-well plate to initiate the reaction. Mosquito (TPP Lab tech) liquid handling robot was used to add compounds to protein solution. Typical final concentration of the compounds was 5 μM or 10 μM. The plates were placed on a shaker for 1 min at RT, sealed and incubated at room temperature for specified time period. 5 μl of reaction mix was added to 10 μl of 0.2% formic acid stop solution and mixed well. Typical end points were 1, 15, 30, and 60 min.
Data were collected using Waters Acquity H-class UPLC system/Xevo G2-XS TOF mass spectrometer. The protein was injected in their liquid phase onto a Bruker Microtrap protein column TR1/15109/03. The following buffers were used to set LC gradient: Buffer A: 0.2% formic acid H2O; B: 0.2% formic acid CAN. The protein was eluted from the column using the following LC Gradient: 0-0.4 min, 10% B to 30% B; 0.4 min-2.4 min, to 90% B, 2.5 min, 10% B, 3 min, 10% B. Initial data analysis was performed using MaxEnt software right after data acquisition.
The standard auto processing function was used to define percentage of unmodified and modified KRAS protein using MexEnt software right after data acquisition. The highest peak was defined as 100% while smaller peak as assigned the number defined by autoprocessing function. The percent of modification corresponding to modified with exemplary compound and unmodified KRAS GDP-loaded KRAS (1-169) G12C, C51S, C80L, C118S were exported to Xcel data analysis software.
The percent of modified protein at the defined concentration of exemplary compound was calculated using the following formula: % mod=Num of modified peak/Sum of modified+unmodified. The resultant value defined as Percent Modification (PM) and an increase in PM reflects that the specific compound is better than other compounds at specified compound concentration at a given time point.

Row | SMILES | IC50 [1] [µM] | MSRA (% modification) 10 μM 0.25 hr [2] [%] | MSRA (% modification) 10 μM 0.50 hr [2] [%] | MSRA (% modification) 5.0 μM 0.017 hr [2] [%]
1 | C=CC(=O)N1CCN(c2nc(OCCNC(C)=O)nc3c(Oc4c(C)ccc5[nH]ncc45)cccc23)CC1 [Example 17F, N-[2-({4-(4-acryloylpiperazin-1-yl)-8-[(5-methyl-1H-indazol-4-yl)oxy]quinazolin-2-yl}oxy)ethyl]acetamide] | 4.59 | 36 | 60 | 
2 | C=CC(=O)N1CCN(c2nc(OC[C@@H]3C[C@H](F)CN3C)nc3c(Oc4c(C)c(Cl)cc5[nH]ncc45)nc(Cl)cc23)CC1 [Example 17G, 1-[4-(6-chloro-8-[(6-chloro-5-methyl-1H-indazol-4-yl)oxy]-2-{[(2S,4S)-4-fluoro-1-methylpyrrolidin-2-yl]methoxy}pyrido[3,4-d]pyrimidin-4-yl)piperazin-1-yl]prop-2-en-1-one] | 0.054 | 79 |  | 
3 | C=CC(=O)N1CCN(c2ncnc3c(Oc4c(C)c(C)cc5[nH]ncc45)nccc23)CC1 [Example 12A, 1-(4-{8-[(5,6-dimethyl-1H-indazol-4-yl)oxy]pyrido[3,4-d]pyrimidin-4-yl}piperazin-1-yl)prop-2-en-1-one] | 2.95 |  | 38 | 
4 | C=CC(=O)N1CCN(c2ncnc3c(Oc4c(Cl)c(C)cc5[nH]ncc45)cccc23)CC1 [Example 06C, 1-(4-{8-[(5-chloro-6-methyl-1H-indazol-4-yl)oxy]quinazolin-4-yl}piperazin-1-yl)prop-2-en-1-one] | 1.62 |  | 53 | 
5 | C=CC(=O)N1CCN(c2nc(OCCN(C)C)nc3c(Oc4c(C)ccc5[nH]ncc45)cccc23)CC1 [Example 03E, 1-(4-{2-[2-(dimethylamino)ethoxy]-8-[(5-methyl-1H-indazol-4-yl)oxy]quinazolin-4-yl}piperazin-1-yl)prop-2-en-1-one] | 1.44 |  | 40 | 
6 | C=CC(=O)N1CCN(c2nc(Oc3cc4n(n3)CCN(C)C4)nc3c(Oc4c(Cl)c(F)cc5[nH]ncc45)nccc23)CC1 [Example 45I, 1-(4-{8-[(5-chloro-6-fluoro-1H-indazol-4-yl)oxy]-2-[(5-methyl-4,5,6,7-tetrahydro-pyrazolo [1,5-a]pyrazin-2-yl)oxy]pyrido [3,4-d]pyrimidin-4-yl}piperazin-1-yl)prop-2-en-1-one] |  |  |  | 7
7 | C=CC(=O)N1CCN(c2nc(O[C@@H]3CCN(CCOC)C[C@H]3C)nc3c(Oc4c(Cl)c(F)cc5[nH]ncc45)nccc23)CC1 (racemic) [Example 27I, rac-1-[4-(8-[(5-chloro-6-fluoro-1H-indazol-4-yl)oxy]-2-{[(3R,4R)-1-(2-methoxy-ethyl)-3-methyl-piperidin-4-yl]oxy}pyrido [3,4-d]pyrimidin-4-yl)piperazin-1-yl]prop-2-en-1-one] |  |  |  | 15
8 | C=CC(=O)N1CCN(c2nc(O[C@@H]3CN(C)C[C@H]3C)nc3c(Oc4c(Cl)c(F)cc5[nH]ncc45)nccc23)CC1 (racemic) [Example 24I, rac-1-[4-(8-[(5-chloro-6-fluoro-1H-indazol-4-yl)oxy]-2-{[(3S,4R)-1,4-dimethyl-pyrrolidin-3-yl]oxy}pyrido [3,4-d]pyrimidin-4-yl)piperazin-1-yl]prop-2-en-1-one] |  |  |  | 20
9 | C=CC(=O)N1CCN(c2ncnc3c(Oc4c(Br)ccc5[nH]ncc45)cccc23)CC1 [Example 11C, 1-(4-(8-((5-bromo-1H-indazol-4-yl)oxy)quinazolin-4-yl)piperazin-1-yl)prop-2-en-1-one] |  |  | 26 | 
10 | C=CC(=O)N1CCN(c2nc(O[C@@H]3CCN(C)C[C@H]3C)nc3c(Oc4c(Cl)c(F)cc5[nH]ncc45)nccc23)CC1 (racemic) [Example 29I, rac-1-[4-(8-[(5-chloro-6-fluoro-1H-indazol-4-yl)oxy]-2-{[(3R,4R)-1,3-dimethyl-piperidin-4-yl]oxy}pyrido [3,4-d]pyrimidin-4-yl)piperazin-1-yl]prop-2-en-1-one] |  |  |  | 16
11 | C=CC(=O)N1CCN(c2nc(O[C@H]3CN(C)C[C@H]3C)nc3c(Oc4c(Cl)c(F)cc5[nH]ncc45)nccc23)CC1 (racemic) [Example 25I, rac-1-[4-(8-[(5-chloro-6-fluoro-1H-indazol-4-yl)oxy]-2-{[(3S,4S)-1,4-dimethyl-pyrrolidin-3-yl]oxy}pyrido [3,4-d]pyrimidin-4-yl)piperazin-1-yl]prop-2-en-1-one] |  |  |  | 6
12 | C=CC(=O)N1CCN(c2nc(OC3CN(C)CC34CC4)nc3c(Oc4c(Cl)c(F)cc5[nH]ncc45)nccc23)CC1 (stereo not drawn) [Example 26I, 1-(4-{8-[(5-chloro-6-fluoro-1H-indazol-4-yl)oxy]-2-[(5-methyl-5-azaspiro [2.4]heptan-7-yl)oxy]pyrido [3,4-d]pyrimidin-4-yl}piperazin-1-yl)prop-2-en-1-one] |  |  |  | 17
13 | C=CC(=O)N1CCN(c2ncnc3c(Oc4c(Br)ccc5[nH]ncc45)nccc23)CC1 [Example 15C, 1-(4-{8-[(5-bromo-1H-indazol-4-yl)oxy]pyrido[3,4-d]pyrimidin-4-yl}piperazin-1-yl)prop-2-en-1-one] |  |  | 12 | 
14 | C=CC(=O)N1CCN(c2nc(O[C@@H]3CN(C)C[C@H]3OC)nc3c(Oc4c(Cl)c(F)cc5[nH]ncc45)nccc23)C[C@@H]1C [Example 37I, 1-[(2S)-4-(8-[(5-chloro-6-fluoro-1H-indazol-4-yl)oxy]-2-{[(3R,4R)-4-methoxy-1-methyl-pyrrolidin-3-yl]oxy}pyrido [3,4-d]pyrimidin-4-yl)-2-methyl-piperazin-1-yl]prop-2-en-1-one] |  |  |  | 16
15 | C=CC(=O)N1CCN(c2nc(Oc3nn(C)c4c3CCN(C)C4)nc3c(Oc4c(Cl)c(F)cc5[nH]ncc45)nccc23)CC1 [Example 47I, 1-(4-{8-[(5-chloro-6-fluoro-1H-indazol-4-yl)oxy]-2-[(1,6-dimethyl-4,5,6,7-tetrahydro-1H-pyrazolo [3,4-c]pyridin-3-yl)oxy]pyrido [3,4-d]pyrimidin-4-yl}piperazin-1-yl)prop-2-en-1-one] |  |  |  | 14
